Source: patent publication US20150165033A1, “COMPOSITION FOR NASAL APPLICATION” (BBU-VITA CORP., priority 2012, published 2015)

Experiments:
[1] = system: catalepsy caused by a single intraperitoneal injection of haloperidol; assay: Spontaneous motor activity in the test "Open Field", catalepsy caused by haloperidol; type: in vivo; details: sum of movements in Open Field; haloperidol 0.25 mg/kg i.p. alone; male rats
Method: The restoration of spontaneous motor activity in rats as the sum of the movements in the test “Open Field” in the experimental model of a catalepsy caused by a single intraperitoneal (i.p.) injection of haloperidol (0.25 mg/kg, “Ratiopharm,” Germany). Dopamine (0.125 mg/kg, Polfa S.A. (Poland) was administered nasally in 50 μl in the solution of the spray once in each nostril in combination with the oxygen anion radicals (SAR) and/or the active substances of the nitrogen oxide according to the present invention (Group IV, “Composition 1”). The experiments were performed on non-purebred male rats having a body mass of 250±37 g.

duration of sleep = assay: Narcotic action of phenobarbital, duration of sleep; type: in vivo; details: phenobarbital control 150 mg/kg
Excerpt: The enhancement of the narcotic effect of the barbiturate phenobarbital in “Composition 3,” administered nasally.

SMILES	Spontaneous Activity [1]	Duration of sleep (duration of sleep) [min]
O=C(CCCN1CCC(O)(c2ccc(Cl)cc2)CC1)c1ccc(F)cc1 [Haloperidol, haloperidol]	3.6 ± 3.4	
CCC1(c2ccccc2)C(=O)NC(=O)NC1=O [Phenobarbital, phenobarbital]		192 ± 29.9
